The source made the active and inactive calls.
Columns and labels:
Aspartyl aminopeptidase = Aspartyl aminopeptidase (Plasmodium falciparum 3D7, UniProt Q8I2J3)
Procathepsin L = Procathepsin L (Homo sapiens, UniProt P07711)
[1] = molecular target: T1, Rac GTPase-activating protein 1 (Homo sapiens, UniProt Q9H0H5); assay: blockers of MgcRacGAP-driven Rac1 GTP hydrolysis – biochemical, ADP Hunter fluorescence, primary and confirmatory, confirmation (AID 624330); assay type: functional
T1 sequence (Q9H0H5 whole entry): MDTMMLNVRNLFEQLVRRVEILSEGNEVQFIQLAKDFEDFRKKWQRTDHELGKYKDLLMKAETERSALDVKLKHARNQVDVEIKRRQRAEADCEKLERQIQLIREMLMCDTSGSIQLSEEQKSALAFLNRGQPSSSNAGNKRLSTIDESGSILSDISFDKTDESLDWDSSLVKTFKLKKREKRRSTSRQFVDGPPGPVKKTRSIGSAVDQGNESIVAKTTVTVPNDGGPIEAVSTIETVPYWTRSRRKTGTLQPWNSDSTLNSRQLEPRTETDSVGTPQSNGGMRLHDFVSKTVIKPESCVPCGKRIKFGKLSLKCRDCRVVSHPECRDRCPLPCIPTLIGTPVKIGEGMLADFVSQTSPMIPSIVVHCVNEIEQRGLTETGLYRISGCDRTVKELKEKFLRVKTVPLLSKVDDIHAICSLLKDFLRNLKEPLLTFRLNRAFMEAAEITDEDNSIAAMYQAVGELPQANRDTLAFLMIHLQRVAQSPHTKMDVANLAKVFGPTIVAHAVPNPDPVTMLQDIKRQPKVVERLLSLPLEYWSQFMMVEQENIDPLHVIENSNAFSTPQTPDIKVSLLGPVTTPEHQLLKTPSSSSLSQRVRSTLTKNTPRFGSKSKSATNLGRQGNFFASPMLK

HEK293 [2] = assay: inhibition of NOD1-driven NF-kB reporter – cell-based, luminescence, uHTS, primary screen (AID 1578); assay type: functional; settings: Homo sapiens
HEK293 [3] = assay: cells; assay type: functional, cell-based; settings: Homo sapiens
HEK293 [4] = assay: cells; assay type: functional, cell-based; settings: Homo sapiens; remark: listed apart in the source
[5] = molecular target: T2, Nucleotide-binding oligomerization domain-containing protein 2 (Homo sapiens, UniProt Q9HC29); assay: inhibition of NOD2-driven NF-kB reporter – cell-based, luminescence, uHTS, HEK293 (AID 1566); assay type: functional
T2 sequence (Q9HC29 whole entry, the tested form may be a part): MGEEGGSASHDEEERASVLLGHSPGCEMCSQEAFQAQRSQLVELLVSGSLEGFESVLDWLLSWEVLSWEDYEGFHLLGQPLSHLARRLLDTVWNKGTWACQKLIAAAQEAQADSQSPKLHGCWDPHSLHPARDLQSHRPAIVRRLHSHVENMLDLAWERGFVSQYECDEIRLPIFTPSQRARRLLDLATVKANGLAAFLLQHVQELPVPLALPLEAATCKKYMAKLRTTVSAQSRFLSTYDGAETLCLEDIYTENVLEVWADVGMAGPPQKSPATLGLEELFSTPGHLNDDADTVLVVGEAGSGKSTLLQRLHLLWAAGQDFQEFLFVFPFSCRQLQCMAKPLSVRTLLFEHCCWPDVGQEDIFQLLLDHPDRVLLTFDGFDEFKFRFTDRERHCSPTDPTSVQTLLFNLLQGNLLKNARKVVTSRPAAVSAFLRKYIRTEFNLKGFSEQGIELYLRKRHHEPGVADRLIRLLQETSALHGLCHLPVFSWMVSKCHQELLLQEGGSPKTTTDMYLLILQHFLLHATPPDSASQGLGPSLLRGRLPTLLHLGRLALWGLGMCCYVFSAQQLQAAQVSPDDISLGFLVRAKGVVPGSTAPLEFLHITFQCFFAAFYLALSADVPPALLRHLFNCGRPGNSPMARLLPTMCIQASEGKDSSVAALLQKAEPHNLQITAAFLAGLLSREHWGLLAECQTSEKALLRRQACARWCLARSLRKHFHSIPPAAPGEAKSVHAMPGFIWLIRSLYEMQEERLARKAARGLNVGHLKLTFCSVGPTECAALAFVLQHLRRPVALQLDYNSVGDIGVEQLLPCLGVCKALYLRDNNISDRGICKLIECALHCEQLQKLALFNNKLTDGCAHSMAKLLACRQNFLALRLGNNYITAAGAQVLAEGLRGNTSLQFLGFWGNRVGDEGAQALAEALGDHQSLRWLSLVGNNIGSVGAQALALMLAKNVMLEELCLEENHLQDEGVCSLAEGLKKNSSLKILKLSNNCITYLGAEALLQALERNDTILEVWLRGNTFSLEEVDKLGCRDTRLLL

HEK293 [6] = assay: NOD2 signaling inhibitors in MDP-stimulated cells, cell-based, uHTS, luminescence (AID 2001); assay type: functional; settings: Homo sapiens
[7] = Trypanosoma cruzi growth suppression in host cells – NIH3T3 host cells, beta-gal luminescence, confirmation (AID 2044); assay type: functional, cell-based;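 further: intracellular parasites grown in NIH/3T3 mouse fibroblasts as host cells; luminescent beta-galactosidase reporter signal from transgenic T. cruzi replicating inside host cells; inhibitors lower the luminescence signal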
HEK293 [8] = assay: cells; assay type: functional, cell-based; settings: Homo sapiens; remark: listed apart in the source
[9] = NIH3T3 cell viability loss – ATP luminescence, mouse fibroblasts, counter-screen, dose response (AID 2010); assay type: functional, cell-based;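 further: cells exposed to compound for about 90 hours before reading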
Interleukin-8 [10] = molecular target: T3, Interleukin-8 (Homo sapiens, UniProt P10145); assay: SAR analysis of Tumor necrosis factor alpha (TNF-alpha) induced IL-8 secretion in MCF-7/NOD1 cells - Set 2. [Related pubchem assays (depositor defined):AID1575, AID2250, AID2260]; assay type: functional, cell-based
T3 sequence (P10145 whole entry): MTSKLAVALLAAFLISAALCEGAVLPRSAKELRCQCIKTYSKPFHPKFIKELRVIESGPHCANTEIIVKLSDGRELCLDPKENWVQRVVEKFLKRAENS

Interleukin-8 [11] = molecular target: T3, Interleukin-8; assay: SAR analysis of GM-Tri-DAP induced IL-8 secretion in MCF-7/NOD1 cells - Set 2. [Related pubchem assays (depositor defined):AID1575, AID1578, AID2333]; assay type: functional, cell-based
[12] = molecular target: T2, Nucleotide-binding oligomerization domain-containing protein 2; assay: inhibition of NOD2 signaling – set 2, SAR follow-up (AID 2475); assay type: functional
Tumor necrosis factor = Tumor necrosis factor (Homo sapiens, UniProt P01375); assay: analog potency on TNFa NF-kB signaling – cell-based, revised, SAR follow-up (AID 2337); assay type: functional
Chain of Tumor necrosis factor (P01375 whole entry): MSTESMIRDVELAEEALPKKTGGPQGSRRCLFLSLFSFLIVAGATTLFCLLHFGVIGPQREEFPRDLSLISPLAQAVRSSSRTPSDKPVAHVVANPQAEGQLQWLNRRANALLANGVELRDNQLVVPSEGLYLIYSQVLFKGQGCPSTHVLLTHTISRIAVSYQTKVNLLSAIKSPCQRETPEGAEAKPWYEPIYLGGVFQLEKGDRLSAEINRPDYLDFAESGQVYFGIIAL

HEK293 [13] = assay: SAR analysis of compounds that are cytotoxic to HEK293 - Set 2. [Related pubchem assays (depositor defined):AID1575, AID1578, AID1849, AID2001, AID2333, AID2334, AID2335, AID2337, AID2800]; assay type: functional, cell-based; settings: Homo sapiens
[14] = molecular target: T4, Nucleotide-binding oligomerization domain-containing protein 1 (Homo sapiens, UniProt Q9Y239); assay: blockers of NOD1 pathway activity – revised, SAR follow-up (AID 2333); assay type: functional
T4 sequence (Q9Y239 whole entry): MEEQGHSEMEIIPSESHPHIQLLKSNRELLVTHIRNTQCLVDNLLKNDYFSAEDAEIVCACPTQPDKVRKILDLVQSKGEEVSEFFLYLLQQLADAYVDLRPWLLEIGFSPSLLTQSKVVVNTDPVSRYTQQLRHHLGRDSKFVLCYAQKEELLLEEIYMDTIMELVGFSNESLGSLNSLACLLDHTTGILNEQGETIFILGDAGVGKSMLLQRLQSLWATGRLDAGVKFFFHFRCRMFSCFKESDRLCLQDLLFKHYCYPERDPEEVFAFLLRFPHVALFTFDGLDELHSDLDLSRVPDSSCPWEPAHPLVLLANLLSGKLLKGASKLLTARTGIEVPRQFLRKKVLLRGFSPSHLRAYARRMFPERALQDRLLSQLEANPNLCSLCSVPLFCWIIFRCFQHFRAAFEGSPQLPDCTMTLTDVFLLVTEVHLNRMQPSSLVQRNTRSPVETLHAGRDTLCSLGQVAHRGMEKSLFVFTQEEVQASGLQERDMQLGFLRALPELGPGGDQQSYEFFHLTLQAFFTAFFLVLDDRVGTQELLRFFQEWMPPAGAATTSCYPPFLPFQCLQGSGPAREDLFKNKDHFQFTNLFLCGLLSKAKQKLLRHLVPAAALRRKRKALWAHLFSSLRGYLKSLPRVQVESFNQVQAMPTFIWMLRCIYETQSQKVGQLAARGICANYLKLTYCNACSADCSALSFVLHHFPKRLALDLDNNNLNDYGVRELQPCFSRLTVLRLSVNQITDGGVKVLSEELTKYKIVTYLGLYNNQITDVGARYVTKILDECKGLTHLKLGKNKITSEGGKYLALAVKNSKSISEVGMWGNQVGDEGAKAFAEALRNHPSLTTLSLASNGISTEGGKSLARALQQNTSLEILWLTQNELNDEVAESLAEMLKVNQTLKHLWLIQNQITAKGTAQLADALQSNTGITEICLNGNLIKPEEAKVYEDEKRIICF

[15] = molecular target: T4, Nucleotide-binding oligomerization domain-containing protein 1; assay: SAR analysis of compounds that inhibit NOD1 - Set 2. [Related pubchem assays (depositor defined):AID1566, AID1575, AID1578, AID1849, AID1852, AID2333, AID2335, AID2798]; assay type: functional
[16] = molecular target: T2, Nucleotide-binding oligomerization domain-containing protein 2; assay: PubChem AID 2334; assay type: functional
HEK293 [17] = assay: cells; settings: Homo sapiens
J774.A1 = assay: Confirmation of image-based Screening Assay for Inhibitors of Phagocytosis. [Related pubchem assays (depositor defined):AID1029, AID1643]; assay type: functional, cell-based; settings: Mus musculus
[18] = molecular target: Eukaryotic translation initiation factor 4H (Homo sapiens, UniProt Q15056); assay: eIF4H binding inhibition – biochemical, uHTS, fluorescence polarization, translation initiation inhibitor project, primary screen (AID 2012)
[19] = molecular target: Polyadenylate-binding protein 1 (Homo sapiens, UniProt P11940); assay: blockers of PABP interaction with poly(A) – biochemical, fluorescence polarization, […] (AID 2014)
Chain of Polyadenylate-binding protein 1 (P11940 whole entry): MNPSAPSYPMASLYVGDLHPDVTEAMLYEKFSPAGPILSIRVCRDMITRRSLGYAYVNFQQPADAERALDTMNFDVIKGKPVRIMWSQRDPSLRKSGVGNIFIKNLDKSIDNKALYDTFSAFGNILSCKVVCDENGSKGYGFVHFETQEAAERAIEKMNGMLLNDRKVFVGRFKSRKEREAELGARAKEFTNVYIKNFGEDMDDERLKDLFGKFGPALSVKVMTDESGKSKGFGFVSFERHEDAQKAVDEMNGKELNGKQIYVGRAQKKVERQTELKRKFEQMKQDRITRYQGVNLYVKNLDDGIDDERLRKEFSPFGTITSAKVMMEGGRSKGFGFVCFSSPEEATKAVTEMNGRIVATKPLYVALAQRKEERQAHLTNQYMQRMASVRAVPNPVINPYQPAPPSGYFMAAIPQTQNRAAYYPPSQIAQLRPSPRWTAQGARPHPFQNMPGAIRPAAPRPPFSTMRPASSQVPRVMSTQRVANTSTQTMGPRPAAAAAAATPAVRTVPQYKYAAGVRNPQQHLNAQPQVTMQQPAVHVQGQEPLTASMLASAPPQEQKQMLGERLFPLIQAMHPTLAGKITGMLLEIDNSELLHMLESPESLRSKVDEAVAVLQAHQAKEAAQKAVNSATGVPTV

[20] = molecular target: Acyl-homoserine lactone acylase PvdQ (Pseudomonas aeruginosa (strain LESB58), UniProt Q9I194); assay: PvdQ acylase enzyme activity blockers – biochemical, fluorescence, plate reader and imaging, cherry-picks, dose response (AID 493231)
Chain of Acyl-homoserine lactone acylase PvdQ (Q9I194 24-193 limits assumed): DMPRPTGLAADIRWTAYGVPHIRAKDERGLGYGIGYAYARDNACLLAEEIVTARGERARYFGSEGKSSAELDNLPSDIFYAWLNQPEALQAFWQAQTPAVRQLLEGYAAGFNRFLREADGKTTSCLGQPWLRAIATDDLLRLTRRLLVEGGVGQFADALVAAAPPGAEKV
Chain of Acyl-homoserine lactone acylase PvdQ (Q9I194 217-762 limits assumed): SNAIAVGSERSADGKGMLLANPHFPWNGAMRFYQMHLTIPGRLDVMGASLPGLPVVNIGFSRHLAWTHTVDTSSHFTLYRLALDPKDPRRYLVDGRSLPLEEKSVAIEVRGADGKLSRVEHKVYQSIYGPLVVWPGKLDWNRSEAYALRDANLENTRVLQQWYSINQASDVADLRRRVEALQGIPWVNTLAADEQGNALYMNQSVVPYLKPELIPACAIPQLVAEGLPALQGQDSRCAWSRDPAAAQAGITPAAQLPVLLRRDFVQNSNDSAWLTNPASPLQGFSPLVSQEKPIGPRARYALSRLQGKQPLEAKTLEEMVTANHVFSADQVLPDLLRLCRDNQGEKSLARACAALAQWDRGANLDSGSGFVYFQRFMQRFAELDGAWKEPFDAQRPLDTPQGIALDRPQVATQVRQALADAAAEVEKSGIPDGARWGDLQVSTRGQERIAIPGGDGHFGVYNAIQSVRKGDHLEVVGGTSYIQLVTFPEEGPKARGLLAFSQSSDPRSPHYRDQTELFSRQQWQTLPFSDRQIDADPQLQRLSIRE

[21] = molecular target: T5, Protein phosphatase methylesterase 1 (Homo sapiens, UniProt Q9Y570); assay: Late stage results from the probe development effort to identify inhibitors of the protein methylesterase PME-1: Gel-based Activity-Based Protein Profiling (ABPP) IC50: Purified enzyme.; assay type: functional
T5 sequence (Q9Y570 whole entry): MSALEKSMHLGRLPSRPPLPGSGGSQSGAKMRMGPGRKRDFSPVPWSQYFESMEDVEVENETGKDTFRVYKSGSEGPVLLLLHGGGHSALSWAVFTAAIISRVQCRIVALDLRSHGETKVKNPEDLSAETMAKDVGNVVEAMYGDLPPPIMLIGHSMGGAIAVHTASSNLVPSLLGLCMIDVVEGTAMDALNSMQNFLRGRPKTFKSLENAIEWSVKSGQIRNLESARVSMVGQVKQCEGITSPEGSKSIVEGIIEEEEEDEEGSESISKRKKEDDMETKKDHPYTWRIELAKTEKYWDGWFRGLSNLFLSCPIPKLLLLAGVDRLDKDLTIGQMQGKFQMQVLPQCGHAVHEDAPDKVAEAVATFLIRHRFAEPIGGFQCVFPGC

[22] = molecular target: T5, Protein phosphatase methylesterase 1; assay: endogenous PME-1 and serine hydrolase inhibition – cell lysate, mouse brain cytosol, FP-rhodamine, gel ABPP, selectivity assay for PME-1 inhibitor project, dose response, panel member PME-1 Assay Panel member description: Inhibition of endogenously expressed PME-1 (AID 2366)

Chain of Aspartyl aminopeptidase (Q8I2J3 whole entry): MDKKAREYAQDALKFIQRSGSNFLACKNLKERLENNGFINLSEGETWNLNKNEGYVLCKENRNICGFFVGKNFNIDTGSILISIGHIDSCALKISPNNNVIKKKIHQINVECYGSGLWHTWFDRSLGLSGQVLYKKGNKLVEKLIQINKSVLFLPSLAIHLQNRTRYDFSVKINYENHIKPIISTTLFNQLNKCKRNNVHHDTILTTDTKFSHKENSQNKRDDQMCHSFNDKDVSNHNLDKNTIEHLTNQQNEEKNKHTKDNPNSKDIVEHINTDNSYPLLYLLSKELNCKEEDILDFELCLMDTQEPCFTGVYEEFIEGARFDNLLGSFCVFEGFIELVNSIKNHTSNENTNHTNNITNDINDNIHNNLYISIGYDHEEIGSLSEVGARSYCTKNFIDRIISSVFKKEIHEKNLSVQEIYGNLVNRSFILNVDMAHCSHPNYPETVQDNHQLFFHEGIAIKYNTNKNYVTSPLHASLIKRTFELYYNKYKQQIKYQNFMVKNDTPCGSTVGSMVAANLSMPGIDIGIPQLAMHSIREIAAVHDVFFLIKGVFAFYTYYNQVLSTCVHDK
Chain of Procathepsin L (P07711 whole entry): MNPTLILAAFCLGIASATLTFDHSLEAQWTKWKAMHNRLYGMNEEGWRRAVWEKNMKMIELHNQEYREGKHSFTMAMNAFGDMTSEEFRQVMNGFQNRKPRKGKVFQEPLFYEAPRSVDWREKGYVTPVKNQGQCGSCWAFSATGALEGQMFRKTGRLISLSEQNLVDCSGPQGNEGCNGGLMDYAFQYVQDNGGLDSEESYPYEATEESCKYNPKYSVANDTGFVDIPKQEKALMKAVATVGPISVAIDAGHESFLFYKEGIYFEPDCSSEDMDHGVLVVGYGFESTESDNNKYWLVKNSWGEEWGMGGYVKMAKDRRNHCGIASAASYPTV

With `Cc1cc(O)nc2c(N=Nc3ccc(O)cc3)c(N)nn12` the IC50 (Aspartyl aminopeptidase) was 1.51 µM (active), the IC50 (Procathepsin L) was > 59.6 µM (not active) and the IC50 [1] was 12.1 µM (active).

With `O=C(Nc1nc2ccccc2n1Cc1ccc(Cl)cc1)c1ccco1` the EC50 (HEK293 [2]) was > 20 µM (inactive), the IC50 (HEK293 [3]) was > 20 µM (inactive) and the IC50 (HEK293 [4]) was > 20 µM (inactive). The EC50 [5] was > 20 µM (inactive), the IC50 (HEK293 [6]) was 1.96 µM (active) and the EC50 [7] was 1.72 µM (active). For the same compound, the IC50 (HEK293 [8]) was > 20 µM (inactive), the EC50 [9] was > 60 µM (not active) and the IC50 (Interleukin-8 [10]) was > 25 µM (inactive). For the same compound, the IC50 (Interleukin-8 [11]) was > 25 µM (inactive), the IC50 [12] was 3.63 µM (active) and the IC50 (Tumor necrosis factor) was > 20 µM (inactive). The IC50 (HEK293 [13]) was > 20 µM (inactive), the IC50 [14] was > 20 µM (inactive) and the IC50 [15] was 3.47 µM (active). For the same compound, the IC50 [16] was > 20 µM (inactive) and the IC50 (HEK293 [17]) was > 20 µM (inactive).

With `Cn1cc(C=Nn2cnc3scc(-c4ccc(Cl)cc4)c3c2=O)c2ccccc21` the IC50 (J774.A1) was < 0.05 µM (inactive).

In the case of `Cc1ccccc1/C=C/c1cccc[n+]1C`, the IC50 [18] is reported as > 100 µM (inactive) and the IC50 [19] is reported as 7.43 µM (active).

For `N#Cc1cc([N+](=O)[O-])ccc1N1CCCC1`, the AC50 [20] was 3.79 µM (active).

With `CS(=O)(=O)C(=Cc1cccn1S(=O)(=O)c1ccccc1)S(C)(=O)=O` the IC50 [21] was > 20 µM (not active) and the IC50 [22] was > 20 µM (inactive).

Source: ChEMBL document CHEMBL1201862, “PubChem BioAssay data set” (2004)
